Experimental data taken from US20260007629A1, “DIETARY BUTYRATE AND ITS USES” (SOCIETE DES PRODUITS NESTLE S.A., priority 2019, published 2026).

Tests used:
[1] = test system: rabbit gastric lipase (RGL) followed by porcine pancreatic lipase (PPL); test: In vitro sequential digestion, SGF followed by SIF, pH-stat; type: in vitro ADME
Description: (§1) 10 wt % oil in water emulsions stabilised by 0.3 wt % polyoxyethylene sorbitan mono-oleate (Tween® 80) were prepared by mixing the Tween 80 into the oil phase at 40° C., then mixing with the water phase using a magnetic stirrer.
(§2) The lipid emulsion (2 mL) containing 200 mg of fat was subjected to gastrointestinal in vitro lipolysis. […] For gastric digestion, the sample was incubated for 90 minutes with 8.5 mL of simulated gastric fluid (SGF), which consisted of 150 mM NaCl, 450 U/mL pepsin, 18 U/mL rabbit gastric lipase at 37° C. and a pH of 5.5.
The intestinal digestion step was performed in the pH stat where the pH was kept constant at 6.8 by addition of NaOH (0.05 M). […] The intestinal digestion step starts when the temperature reaches 37±0.5° C. The pH was adjusted to pH 6.8 and after incubation of two minutes at this pH and temperature, a pancreatin solution (5 mM tris, 150 mM NaCl at pH 6.8) was added. The final composition of the intestinal fluid was 10 mM CaCl2, 2 mM mixed bile salts, 0.75 mM phospholipid, 150 mM NaCl and 4 mM tris (hydroxymethyl) aminomethane buffer. The intestinal digestion step was carried out for 3 hours in a titration manager from RADIOMETER®. During the intestinal phase of digestion, the kinetics of digestion were followed using a pH-stat (TIM856, RADIOMETER®) technique and expressed as titratable acid (rather than fatty acid) that was calculated by the equation:
TA: Total titratable acid released, mmol; VNaOH: volume of NaOH used to titrate the released acid in 3 h, mL.
(§3) Since the digestion of dietary lipids involves lipases of both gastric and intestinal origin, lipid digestibility was assessed using two digestion models i) simulated intestinal fluid (SIF) with porcine pancreatic lipase (PPL) and ii) sequential digestion in simulated gastric fluid (SGF) with rabbit gastric lipase (RGL) followed by simulated intestinal fluid (SIF) with porcine pancreatic lipase (PPL).

[2] = biological target: T1, porcine pancreatic lipase (PPL) (Sus scrofa, UniProt P00591); test: In vitro digestion, simulated intestinal fluid (SIF) model, pH-stat; type: in vitro ADME; set-up: by porcine pancreatic lipase (from pancreatin); purchased SIGMA-ALDRICH P7585; host or cells: porcine pancreas extract (pancreatin); details: SIF alone; emulsion with 200 mg fat, pH 6.8, 37° C.
T1 sequence (P00591 1-450): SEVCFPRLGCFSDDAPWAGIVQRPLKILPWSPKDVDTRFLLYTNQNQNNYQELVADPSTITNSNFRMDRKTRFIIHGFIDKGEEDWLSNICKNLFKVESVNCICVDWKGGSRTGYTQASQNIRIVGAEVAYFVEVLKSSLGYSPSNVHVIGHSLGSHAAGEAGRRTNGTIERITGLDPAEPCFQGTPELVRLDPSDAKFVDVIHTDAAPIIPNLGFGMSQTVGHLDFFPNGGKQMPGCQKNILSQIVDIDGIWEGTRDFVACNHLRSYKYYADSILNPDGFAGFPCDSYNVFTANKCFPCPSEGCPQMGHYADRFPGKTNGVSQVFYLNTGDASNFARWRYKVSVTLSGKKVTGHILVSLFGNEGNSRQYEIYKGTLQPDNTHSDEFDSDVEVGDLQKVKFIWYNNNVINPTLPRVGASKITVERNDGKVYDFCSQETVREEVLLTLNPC
T1 sequence (P02703 23-112 partner): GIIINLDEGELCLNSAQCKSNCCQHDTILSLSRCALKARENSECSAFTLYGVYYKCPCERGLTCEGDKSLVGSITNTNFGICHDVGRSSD
Description: as §1, §2
The intestinal digestion step was performed in the pH stat where the pH was kept constant at 6.8 by addition of NaOH (0.05 M). […] The intestinal digestion step starts when the temperature reaches 37±0.5° C. […] During the intestinal phase of digestion, the kinetics of digestion were followed using a pH-stat (TIM856, RADIOMETER®) technique and expressed as titratable acid (rather than fatty acid) that was calculated by the equation: […]
as §3

[3] = biological target: T1, porcine pancreatic lipase (PPL); details: pig, 3 h, pH 11.5
Text: Because many fatty acids are only partially ionised at pH 6.8, direct titration gives only partial picture of the extent of lipid digestion, instead back titration to pH 11.5 or GC-FAME analysis is required to estimate the full extent of digestion.

## CCCC(=O)OCC(COC(=O)CCC)OC(=O)CCC [tributyrin]
[1]; SGF-SIF digestion (90 min SGF pre-exposure, pH 5.5)
  initial lipolysis rate in SIF compartment: 44.1 ± 8.8 µmol/min
[1]; in words, gastric compartment of the model
  hydrolysis in the stomach / extent of gastric lipolysis: extensive hydrolysis in the stomach
[1]; indicated by decreased total fatty acid release in SIF after RGL pre-exposure
  lipolysis by gastric lipase: ~60%
[2]
  initial (maximal) rate of lipolysis: 223 ± 59 µmol/min
[3]
  extent of digestion: 101.5±0.9%
